# Publication PMC7296983 (Journal of medicinal chemistry, 2019)
# T1: NNMT (Homo sapiens, UniProt P40261)
# T1 sequence (P40261 1-264): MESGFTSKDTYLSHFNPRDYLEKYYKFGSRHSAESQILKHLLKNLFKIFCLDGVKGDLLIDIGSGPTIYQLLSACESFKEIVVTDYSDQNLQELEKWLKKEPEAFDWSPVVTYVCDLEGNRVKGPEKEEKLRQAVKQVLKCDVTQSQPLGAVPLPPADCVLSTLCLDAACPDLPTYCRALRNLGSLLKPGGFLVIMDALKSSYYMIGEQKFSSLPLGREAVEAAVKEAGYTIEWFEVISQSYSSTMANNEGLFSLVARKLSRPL
# T2: NTMT1 (Homo sapiens, UniProt Q9BV86)
# T2 sequence (Q9BV86 1-223): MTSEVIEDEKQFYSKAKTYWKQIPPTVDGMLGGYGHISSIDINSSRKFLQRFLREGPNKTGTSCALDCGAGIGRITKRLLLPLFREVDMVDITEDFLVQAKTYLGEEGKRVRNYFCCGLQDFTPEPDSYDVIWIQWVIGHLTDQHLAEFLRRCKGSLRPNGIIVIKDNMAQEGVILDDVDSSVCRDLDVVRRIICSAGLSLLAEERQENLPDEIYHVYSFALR
# How the values were obtained:
# NNMT [1] = settings: cited from earlier work
# HCT116 = type: in vitro ADME; settings: human, 100 μM
# NNMT [2] = target: T1, NNMT; test: SAH hydrolase; type: biochemical; settings: for activity compared to respective parent compound 1g, 1h and 3a: aspartic replaced by glutamic amino acid portion
# NTMT1 = target: T2, NTMT1; test: Selectivity assay, SAHH-coupled fluorescence; type: biochemical; settings: read-out: Enzyme activity (%)
# TbPRMT7 = TbPRMT7 (Trypanosoma brucei brucei, UniProt Q582G4); test: biochemical
# PRMT1 = PRMT1 (Homo sapiens, UniProt Q99873); test: Selectivity assay, SAHH-coupled fluorescence; type: biochemical
# NNMT [3] = settings: cited from earlier work; remark: listed apart in the source
# NNMT [4] = settings: cited from earlier work; remark: listed apart in the source
# SAH hydrolase = substrate: C[S+](CC[C@H](N)C(=O)[O-])C[C@H]1O[C@@H](n2cnc3c(N)ncnc32)[C@H](O)[C@@H]1O; test: SAH hydrolase; type: biochemical, human; settings: other: substrate and cofactor, Figure S1; pH 7.5; 37.0 °C
# [5] = substrate: NC(=O)c1cccnc1; test: purified protein, by the assay type; settings: other: substrate and cofactor, Figure S1; pH 7.5; 37.0 °C
# Chain of TbPRMT7 (Q582G4 whole entry): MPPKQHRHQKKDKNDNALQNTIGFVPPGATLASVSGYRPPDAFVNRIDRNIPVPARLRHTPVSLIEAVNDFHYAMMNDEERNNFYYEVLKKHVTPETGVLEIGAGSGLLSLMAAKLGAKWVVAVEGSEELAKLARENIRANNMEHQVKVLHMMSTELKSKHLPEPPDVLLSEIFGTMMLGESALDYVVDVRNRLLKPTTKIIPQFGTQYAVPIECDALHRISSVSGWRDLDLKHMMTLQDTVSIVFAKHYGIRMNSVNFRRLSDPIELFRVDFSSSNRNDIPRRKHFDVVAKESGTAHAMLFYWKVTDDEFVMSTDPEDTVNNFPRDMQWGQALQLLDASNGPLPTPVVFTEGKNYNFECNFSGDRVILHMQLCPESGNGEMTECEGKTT
# Chain of PRMT1 (Q99873 whole entry, species assumed): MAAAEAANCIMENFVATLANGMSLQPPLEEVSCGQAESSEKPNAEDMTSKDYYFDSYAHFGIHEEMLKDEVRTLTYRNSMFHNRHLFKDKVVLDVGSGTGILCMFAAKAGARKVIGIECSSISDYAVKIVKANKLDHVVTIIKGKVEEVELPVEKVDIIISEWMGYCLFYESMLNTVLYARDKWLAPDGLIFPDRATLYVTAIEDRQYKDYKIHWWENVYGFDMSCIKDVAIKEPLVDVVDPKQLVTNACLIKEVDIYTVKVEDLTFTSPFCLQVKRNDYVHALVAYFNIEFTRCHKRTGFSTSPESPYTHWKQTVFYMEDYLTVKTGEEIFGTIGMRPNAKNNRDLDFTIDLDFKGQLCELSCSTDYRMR
molecule,measurement,setting,value
Cc1ccncc1C(N)=O [4-methylnicotinamide],Km relative to nicotinamide,NNMT [1],comparable to nicotinamide
NC(=O)c1cccc(CCCN(CC[C@H](N)C(=O)O)C[C@H]2O[C@@H](n3cnc4c(N)ncnc43)[C@H](O)[C@@H]2O)c1 [Compound 1a],cell permeability (MS detection of cellular levels),HCT116,barely exhibited enhanced cell permeability
"Cc1ccc(C(N)=O)cc1CCCN(CC[C@H](N)C(=O)O)C[C@H]1O[C@@H](n2cnc3c(N)ncnc32)[C@H](O)[C@@H]1O [Compound 1b, (S)-2-amino-4-((((2R,3S,4R,5R)-5-(6-amino-9H-purin-9-yl)-3,4dihydroxytetrahydrofuran-2-yl)methyl)(3-(5-carbamoyl-2methylphenyl)propyl)amino)butanoic acid]",decrease of inhibitory activity compared with 1a,NNMT [2],more than 3 fold
"Cc1ccc(CCCN(CC[C@H](N)C(=O)O)C[C@H]2O[C@@H](n3cnc4c(N)ncnc43)[C@H](O)[C@@H]2O)cc1C(N)=O [Compound 1c, (S)-2-amino-4-((((2R,3S,4R,5R)-5-(6-amino-9H-purin-9-yl)-3,4dihydroxytetrahydrofuran-2-yl)methyl)(3-(3-carbamoyl-4methylphenyl)propyl)amino)butanoic acid]",decrease of inhibitory activity compared with 1a,NNMT [2],marginally affected the inhibition
"NC(=O)c1cccc(CCCN(CCC[C@H](N)C(=O)O)C[C@H]2O[C@@H](n3cnc4c(N)ncnc43)[C@H](O)[C@@H]2O)c1 [Compound 1d, (S)-2-amino-5-((((2R,3S,4R,5R)-5-(6-amino-9H-purin-9-yl)-3,4-dihydroxytetrahydrofuran-2-yl)methyl)(3-(3-arbamoylphenyl)propyl)amino)pentanoic acid]",decrease of inhibitory activity compared with 1a,NNMT [2],70 fold
"Nc1ncnc2c1ncn2[C@@H]1O[C@H](CN(CCCc2cccc3ccccc23)CCC[C@H](N)C(=O)O)[C@@H](O)[C@H]1O [Compound 1e, (S)-2-amino-5-((((2R,3S,4R,5R)-5-(6-amino-9H-purin-9-yl)-3,4-dihydroxytetrahydrofuran-2-yl)methyl)(3-(naphthalen-1-yl)propyl)amino)pentanoic acid]","activity compared to respective parent compound 1g, 1h and 3a",NNMT [2],either comparable or 3-fold decreased activities
"Nc1ncnc2c1ncn2[C@@H]1O[C@H](CN(CCCc2ccc3ccccc3c2)CCC[C@H](N)C(=O)O)[C@@H](O)[C@H]1O [Compound 1f, (S)-2-amino-5-((((2R,3S,4R,5R)-5-(6-amino-9H-purin-9-yl)-3,4-dihydroxytetrahydrofuran-2-yl)methyl)(3-(naphthalen-2-yl)propyl)amino)pentanoic acid]","activity compared to respective parent compound 1g, 1h and 3a",NNMT [2],either comparable or 3-fold decreased activities
"COC(=O)c1cccc(CCCN(CC[C@H](N)C(=O)O)C[C@H]2O[C@@H](n3cnc4c(N)ncnc43)[C@H](O)[C@@H]2O)c1 [Compound 1j, (S)-2-amino-4-((((2R,3S,4R,5R)-5-(6-amino-9H-purin-9-yl)-3,4-dihydroxytetrahydrofuran-2-yl)methyl)(3-(3-(methoxycarbonyl)phenyl)propyl)amino)butanoic acid]",decrease of inhibitory activity compared with 1a,NNMT [2],about 700 fold
"NC(=O)c1cccc(C#CCN(CC[C@H](N)C(=O)O)C[C@H]2O[C@@H](n3cnc4c(N)ncnc43)[C@H](O)[C@@H]2O)c1 [Compound 2a, (S)-2-amino-4-((((2R,3S,4R,5R)-5-(6-amino-9H-purin-9-yl)-3,4-dihydroxytetrahydrofuran-2-yl)methyl)(3-(3-carbamoylphenyl)prop-2-yn-1-yl)amino)butanoic acid]",remaining activity at 3.7 µM,NTMT1,64%
same,IC50,TbPRMT7,> 33 µM
same,IC50,PRMT1,> 100 µM
NC(=O)c1cccc(C#CCN(CC[C@H](N)C(=O)O)C[C@H]2O[C@@H](n3cnc4c(N)ncnc43)[C@H](O)[C@@H]2O)c1 [Compound 2a],cell permeability (MS detection of cellular levels),HCT116,limited permeability
"COc1ccc(C(N)=O)cc1C#CCN(CC[C@H](N)C(=O)O)C[C@H]1O[C@@H](n2cnc3c(N)ncnc32)[C@H](O)[C@@H]1O [Compound 2b, (S)-2-amino-4-((((2R,3S,4R,5R)-5-(6-amino-9H-purin-9-yl)-3,4-dihydroxytetrahydrofuran-2-yl)methyl)(3-(5-carbamoyl-2-methoxyphenyl)prop-2-yn-1-yl)amino)butanoic acid]",loss of activity compared to 2a,NNMT [2],7 fold
"Cc1ccc(C#CCN(CC[C@H](N)C(=O)O)C[C@H]2O[C@@H](n3cnc4c(N)ncnc43)[C@H](O)[C@@H]2O)cc1C(N)=O [Compound 2c, (S)-2-amino-4-((((2R,3S,4R,5R)-5-(6-amino-9H-purin-9-yl)-3,4-dihydroxytetrahydrofuran-2-yl)methyl)(3-(3-carbamoyl-4-methylphenyl)prop-2-yn-1-yl)amino)butanoic acid]",loss of activity compared to 2a,NNMT [2],comparable activity
"NC(=O)c1cccc(C#CCNC[C@H]2O[C@@H](n3cnc4c(N)ncnc43)[C@H](O)[C@@H]2O)c1 [Compound 2d, 3-(3-((((2R,3S,4R,5R)-5-(6-amino-9H-purin-9-yl)-3,4-dihydroxytetrahydrofuran-2-yl)methyl)amino)prop-1-yn-1-yl)benzamide]",loss of activity compared to 2a,NNMT [2],~500 fold
"NC(=O)c1cccc(CCCCN(CCC[C@H](N)C(=O)O)C[C@H]2O[C@@H](n3cnc4c(N)ncnc43)[C@H](O)[C@@H]2O)c1 [Compound 3b, (S)-2-amino-5-((((2R,3S,4R,5R)-5-(6-amino-9H-purin-9-yl)-3,4-dihydroxytetrahydrofuran-2-yl)methyl)(4-(3-carbamoylphenyl)butyl)amino)pentanoic acid]","activity compared to respective parent compound 1g, 1h and 3a",NNMT [2],either comparable or 3-fold decreased activities
NC(=O)c1cccc(CCN(CCC[C@H](N)C(=O)O)C[C@H]2O[C@@H](n3cnc4c(N)ncnc43)[C@H](O)[C@@H]2O)c1 [MS2734],fold higher inhibitory activity than MS 2756,NNMT [3]; aspartic amino acid replaced with glutamic acid in the SAM portion,over 10 fold
same,activity of previously reported bisubstrate analogs,NNMT [3],moderate activities at μM range
NC(=O)c1cccc(CCN(CC[C@H](N)C(=O)O)C[C@H]2O[C@@H](n3cnc4c(N)ncnc43)[C@H](O)[C@@H]2O)c1 [MS2756],activity of previously reported bisubstrate analogs,NNMT [3],moderate activities at μM range
NC(=O)c1cccc(C#C[C@@H](CC[C@H](N)C(=O)O)C[C@H]2O[C@@H](n3cnc4c(N)ncnc43)[C@H](O)[C@@H]2O)c1 [NS1],Ki,NNMT [4],~0.0005 µM
c1ccc2ncccc2c1 [Quinoline],Km relative to nicotinamide,NNMT [1],comparable to nicotinamide
c1ccc2cnccc2c1 [isoquinoline],Km relative to nicotinamide,NNMT [1],~3 fold
NNMT (Homo sapiens) (protein) MESGFTSKDTYLSHFNPRDYLEKYYKFGSRHSAESQILKHLLKNLFKIFCLDGVKGDLLIDIGSGPTIYQLLSACESFKEIVVTDYSDQNLQELEKWLKKEPEAFDWSPVVTYVCDLEGNRVKGPEKEEKLRQAVKQVLKCDVTQSQPLGAVPLPPADCVLSTLCLDAACPDLPTYCRALRNLGSLLKPGGFLVIMDALKSSYYMIGEQKFSSLPLGREAVEAAVKEAGYTIEWFEVISQSYSSTMANNEGLFSLVARKLSRPL,Km,SAH hydrolase,10 µM
same,Km,[5],10 µM
